Measured values reported in PMC13360702, “An Agonist/Antagonist Photo‐Switchable Vitamin D Mimetic Enables Bidirectional Optical Control of VDR” (Angewandte Chemie (International Ed. in English), 2026).
Like-named read-outs stand apart in the source and are kept apart here.

Key:
VDR = biological target: T1, VDR (Homo sapiens, UniProt P11473); experiment: Gal4‐VDR hybrid reporter gene assay, agonist mode; format: cell-based; details: for EC50: HEK293T cells, mean±S.E.M., n≥3
T1 construct: -CMV-VDR-LBD coding for the hinge region and; expressed in transfected cells; host or cells: HEK293T
T1 sequence (P11473 127-423 limits assumed): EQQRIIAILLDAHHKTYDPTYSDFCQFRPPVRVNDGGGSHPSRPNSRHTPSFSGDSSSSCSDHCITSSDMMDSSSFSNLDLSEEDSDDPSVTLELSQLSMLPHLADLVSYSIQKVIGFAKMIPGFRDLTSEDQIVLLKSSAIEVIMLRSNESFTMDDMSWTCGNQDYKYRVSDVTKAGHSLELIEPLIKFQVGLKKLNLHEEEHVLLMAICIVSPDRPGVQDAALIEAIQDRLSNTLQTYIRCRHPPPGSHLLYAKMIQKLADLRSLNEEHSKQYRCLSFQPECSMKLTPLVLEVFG
Procedure: FIGURE 2 Development and characterization of the light‐activated vitamin D mimetic photo‐vitD (10). (a) Structure activity relationship of photo‐switchable VDR agonists 4–10. Compounds were tested in a cellular Gal4‐VDR hybrid reporter gene assay. Relative activation is normalized to the effect of 2 (1 µM) set as 100% activation. The (Z)‐states of the compounds were maintained with a Cell‐Disco [24] (370 nm). […] Data in agonist (EC50) and antagonist mode (IC50; vs. 0.3 µM 2) are shown for (E)‐ and (Z)‐10. The corresponding dose‐response curves are shown in (d). (b) Predicted binding mode of (E)‐7 (green) in the VDR ligand binding site (pdb ID 4g1d). […] (c) Predicted binding mode of (Z)‐10 (yellow) in the VDR ligand binding site. The altered regiochemistry conveys strong preference for the light‐induced (Z)‐configuration and the extended naphthoic acid motif enables a strong ionic contact to R302. (d) Dose‐response curves of (E)‐ (dark) and (Z)‐10 (370 nm) in the Gal4‐VDR reporter gene assay in agonist (top) and antagonist mode (bottom, with 0.3 µM calcitriol (2)). (Z)‐10 activated VDR; (E)‐10 and (Z)‐10 antagonized VDR activation by 0.3 µM calcitriol (2). (Z)‐10 was maintained with a Cell‐Disco [24] (370 nm). Data are the mean±S.E.M. relative VDR act. vs. 0.3 µM calcitriol (2), n≥3. (e) Activity profile of 10 (1 µM) on nuclear receptors showing exclusive VDR activation by the light‐activated state. 10 was tested in a panel of uniform Gal4‐NR hybrid reporter gene assays. (Z)‐10 was maintained with a Cell‐Disco [24] (370 nm). Data are the mean±SD, n = 3. (f) Representative UV/Vis spectra of 10 as (E)‐ (dark) and (Z)‐states (PSS 365 nm), and after switching back to (E) with 465 nm. (g) (E)/(Z)‐ratios of 10 in the dark‐adapted state, after illumination at 365 nm for 5 min and after switching back from mostly‐(Z) with 465 nm for 5 min. (h) 10 could be rapidly and reversibly switched between the (E)‐ and (Z)‐states over multiple cycles by alternating irradiation at 365 and 465 nm. Absorbance was measured at 351 nm with a 25 µM solution in DMSO, one cycle is 30 sec. […] 10 was pre‐illuminated at 365 nm for 30 min and then kept in the dark. (E)/(Z) ratios were measured by NMR. (j) Binding mode prediction of (E)‐ and (Z)‐10 to the VDR‐antagonist complex 2zxm (residues numbered according to [21]). (Z)‐10 (yellow) forms an agonist‐like binding mode with several polar interactions at both ends of the pocket. (E)‐10 (cyan) is also anchored at the distal end of the pocket by an H‐bond network with R302 and the D176 backbone but due to the (E)‐configuration, the β‐naphthoic acid residue protrudes deeper and the pentan‐3‐ol motif rotates away from H333/H423. Therefore, (E)‐10 lacks stabilizing/activating contacts with the H333/H423 region rationalizing its antagonist properties.
Gal4-hybrid reporter gene assays. Reporter gene assays were performed in HEK293T cells (German Collection of Microorganisms and Cell Culture GmbH, DSMZ) as reported previously using Gal4 -NR LBD fusion receptor plasmids each coding for the hinge region and LBD of the canonical isoform of the respective human nuclear receptor.[7,8] pFR-Luc (Stratagene, La Jolla, CA, USA) served as a reporter plasmid and pRL-SV40 (Promega, Madison, WI, USA) was used for normalization of transfection efficiency and test compound toxicity. Cells were cultured in Dulbecco’s modified Eagle’s medium (DMEM), high glucose supplemented with 10% fetal calf serum (FCS), sodium pyruvate (1 mM), penicillin (100 U/mL), and streptomycin (100 μg/mL) at 37 °C and 5% CO2, and seeded in 96-well plates (3 × 10^4 cells/well). After 24 h, the medium was changed to Opti -MEM without supplements, and cells were transiently transfected using Lipofectamine LTX reagent (Invitrogen, Carlsbad, CA, USA) according to the manufacturer’s protocol. Five hours after transfection, cells were incubated with the test compounds […]

ASC52telo hTERT cells = experiment: in vitro osteogenesis model (ALP activity, von Kossa staining); format: cell-based, human; details: osteogenic differentiation over 15 days, dark or Cell‐Disco (370 nm, 100 ms/10 s)
Procedure: FIGURE 3 Optical control of VDR activity with photo‐vitD (10). (a) 10 (1 µM) enabled light‐dependent in‐cell activation of VDR in a fluorescent (mCherry) reporter gene assay. Gray curve: dark; blue curve: Cell‐Disco (370 nm; 100 ms/10 s); yellow curve: dark for 10 h, then Cell‐Disco (370 nm); magenta curve: Cell‐Disco (370 nm) for 10 h, then Cell‐Disco (450 nm). Lines are the mean, shadows are S.E.M.; n = 6. (b–d) Phenotypic model of bone formation using human […] (ASC52telo hTERT cells) and cyclic treatment with dexamethasone, 2‐phospho‐L‐ascorbic acid, and glycerol 2‐phosphate over 15 days to induce osteogenesis. Alkaline phosphatase (ALP) activity (b) and von Kossa staining of hydroxyapatite (c; representative photomicrographs in d) were used as markers of osteogenesis. Experiments were performed in the dark (gray bars) and using a Cell‐Disco (370 nm, 100 ms/10 s; blue bars). Data are the mean±SD, n = 6. * p<0.05, ** p<0.01, *** p<0.001 (vs. respective dark or illuminated DMSO (diff.) ctrl or as indicated; ANOVA with Dunnett's multiple comparisons test).
Photo‐vitD (10) thus appeared suitable for application as tool for VDR control in complex phenotypic settings. […] Photo‐vitD (10) thus enabled bidirectional optical control of osteogenesis in cellulo based on its ability to switch between agonist and antagonist states. […]
experiment was repeated independently three times. CellDiscos[9] were used for pulsed irradiation at 370 nm or 450 nm to switch 10 between photostationary states. The live cells were assayed for fluorescence reporter intensity at multiple time points over 36 h. Fluorescence intensity (FI) was measured (λex 585/10 nm, λem 610/10 nm) in bottom reading mode with a Tecan Spark Cyto (Tecan Deutschland GmbH).
Fold FI was obtained by dividing the mean F I of a test sample by the mean FI of the untreated control of the respective measurement (time point).
In vitro osteogenesis model. […] Absorbance was measured at 410 nm for 60 min every 5 min with an increase in absorbance reflecting phosphatase activity (nmol/min). For quantification via linear […]

[1] = photophysical characterization (photo‐switching, thermal relaxation); format: physicochemical; details: room temperature (∼21°C); pre‐illuminated at 365 nm for 30 min, then dark; (E)/(Z) ratios by NMR
Procedure: FIGURE 2 Development and characterization of the light‐activated vitamin D mimetic photo‐vitD (10). (a) Structure activity relationship of photo‐switchable VDR agonists 4–10. Compounds were tested in a cellular Gal4‐VDR hybrid reporter gene assay. Relative activation is normalized to the effect of 2 (1 µM) set as 100% activation. The (Z)‐states of the compounds were maintained with a Cell‐Disco [24] (370 nm). […] Data in agonist (EC50) and antagonist mode (IC50; vs. 0.3 µM 2) are shown for (E)‐ and (Z)‐10. The corresponding dose‐response curves are shown in (d). (b) Predicted binding mode of (E)‐7 (green) in the VDR ligand binding site (pdb ID 4g1d). […] (c) Predicted binding mode of (Z)‐10 (yellow) in the VDR ligand binding site. The altered regiochemistry conveys strong preference for the light‐induced (Z)‐configuration and the extended naphthoic acid motif enables a strong ionic contact to R302. (d) Dose‐response curves of (E)‐ (dark) and (Z)‐10 (370 nm) in the Gal4‐VDR reporter gene assay in agonist (top) and antagonist mode (bottom, with 0.3 µM calcitriol (2)). (Z)‐10 activated VDR; (E)‐10 and (Z)‐10 antagonized VDR activation by 0.3 µM calcitriol (2). (Z)‐10 was maintained with a Cell‐Disco [24] (370 nm). […] Absorbance was measured at 351 nm with a 25 µM solution in DMSO, one cycle is 30 sec. […] (E)/(Z) ratios were measured by NMR. […]

[2] = (Z)‐state maintained with Cell‐Disco (370 nm), read-out: VDR modulation light-activated (Z): EC50
[3] = dark‐adapted (E)‐state, read-out: VDR modulation dark (E): EC50

Compound | EC50 (VDR; [2]) | EC50 (VDR; [3]) | effect on osteogenesis (ALP activity, von Kossa staining positive area) (ASC52telo hTERT cells) | further results
CCCc1cc(C(O)(CC)CC)ccc1-c1ccc(/N=N/c2ccc3[nH]c(=O)[nH]c3c2)cc1C [compound 9] | – | – | – | VDR modulation light-activated (Z): activation in words (VDR; (Z)‐state, Cell‐Disco (370 nm), 10 μM, inactive = no statistically significant activation at the indicated concentration): failed to activate VDR; VDR modulation dark (E): activation in words (VDR; dark‐adapted (E)‐state, 10 μM, inactive = no statistically significant activation at the indicated concentration): failed to activate VDR
CCCc1cc(C(O)(CC)CC)ccc1-c1cc(/N=N/c2ccc(CO)c(CO)c2)ccc1C [compound 4] | 140 ± 300 nM | 600 ± 200 nM | – | activity difference between the dark‐adapted (E)‐ and the light‐induced (Z)‐isomers (VDR; VDR agonism, (E) vs (Z)): 4 fold
CCC(O)(CC)c1ccc(-c2cc(/N=N/c3ccc(CO)c(CO)c3)ccc2C)c(C)c1 [compound 5] | 920 ± 60 nM | 1000 ± 200 nM | – | –
C=C1/C(=C\C=C2/CCC[C@]3(C)[C@@H]([C@H](C)CCCC(C)(C)O)CC[C@@H]23)C[C@@H](O)C[C@@H]1O [compound 2, 1,25‐dihydroxyvitamin D, reference compound] | – | – | counteracted bone formation | –
CCCc1cc(C(O)(CC)CC)ccc1-c1ccc(/N=N\c2ccc3cc(C(=O)O)ccc3c2)cc1C [(Z)‐10] | – | – | resembled the effects of calcitriol with weaker efficacy | thermal relaxation half‐life [1]: 29 h
CCCc1cc(C(O)(CC)CC)ccc1-c1ccc(/N=N/c2ccc3cc(C(=O)O)ccc3c2)cc1C [(E)‐10] | – | – | promoted osteogenesis | –

More lines, main results first:

EC50 (VDR; [2]) | EC50 (VDR; [3]) | Compound | effect on osteogenesis (ALP activity, von Kossa staining positive area) (ASC52telo hTERT cells) | further results
310 ± 40 nM | 500 ± 100 nM | CCCc1cc(C(O)(CC)CC)ccc1-c1cc(/N=N/c2ccc(C(=O)O)c(O)c2)ccc1C [compound 7] | – | –
1400 ± 200 nM | > 10000 nM | CCCc1cc(C(O)(CC)CC)ccc1-c1ccc(/N=N/c2ccc(C(=O)O)c(O)c2)cc1C [compound 8] | – | –
1100 ± 200 nM | 1800 ± 300 nM | CCCCc1cc(C(O)(CC)CC)ccc1-c1cc(/N=N/c2ccc(CO)c(CO)c2)ccc1C [compound 6] | – | –
